Data from patent US20090124501A1, “Silicic Acid Componenet Supplying Agent For Algae And Method For Supplying Silicic Acid Component To Algae” (Incorporated Administrative Agency Fisheries Research Agency, priority 2006, published 2009).

System: Chaetoceros
Test: Pigment and chlorophyll a content of Chaetoceros cultured for 20 days
Assay type: cell-based
Procedure: With respect to Chaetoceros cultured for 20 days after the silicic acid hydrogel and sodium metasilicate were added in an experimental plot and a control plot, respectively, under the same conditions as in Embodiment 3, difference in pigment and chlorophyll a content were examined. 20 mL of culture solution was collected from each of the experimental plot and the control plot, each cell density was measured, and only the cells were collected by suction filtration with a GF/F filter having a diameter of 47 mm (Whatman International Ltd.). Chlorophyll a was measured by a fluorescence method with a fluorometer (Turner Designs, Inc.) or by a measurement method with a spectrophotometer (Shimadzu Corporation).

`O=[Si]([O-])[O-].[Na+].[Na+]` [sodium metasilicate] was tested, and the chlorophyll a content (Chaetoceros cultured for 20 days) was 0.12-0.16 pg/cell and the “color of Chaetoceros collected on the filters, visual observation” value (after culturing for 20 days, GF/F filter) was “light brown color”.
